Assay results as given in patent US7138361B2, “Herbicidal heterocycles” (E. I. du Pont de Nemours and Company, priority 2000, dated 2006).

How the values were obtained:
Format in all cases: in vivo
[1] = system: barnyardgrass (Echinochloa crus-galli); assay: Test C flooded paddy test; conditions: for Barnyardgrass plant response rating: Flooded Paddy, scale 0 to 100, 0 no effect, 100 complete control; for Plant response rating, Barnyardgrass: flooded paddy test, scale 0 to 100 (0 no effect, 100 complete control)
Summary of the method: (§1)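 Greenhouse-maintained for 12 to 14 days after treatment, the paddy plants (2-leaf stage at application) were scored visually against controls. A score of 0 denotes no effect and a score of 100 denotes complete control.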

[2] = system: duck salad (Heteranthera limosa); assay: Test C flooded paddy test; conditions: for Ducksalad plant response rating: Flooded Paddy, scale 0 to 100, 0 no effect, 100 complete control; for Plant response rating, Ducksalad: flooded paddy test, scale 0 to 100 (0 no effect, 100 complete control)
Summary of the method: as §1

[3] = system: smallflower flatsedge (Cyperus difformis); assay: Test C flooded paddy test; conditions: for Flatsedge plant response rating: Flooded Paddy, scale 0 to 100, 0 no effect, 100 complete control; for Plant response rating, Flatsedge: flooded paddy test, scale 0 to 100 (0 no effect, 100 complete control)
Summary of the method: as §1

[4] = system: cocklebur (Xanthium strumarium); assay: Test C preemergence
Summary of the method: (§2)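 Visual injury scores of 0–100, with 100 meaning complete control, were given relative to controls after 12–14 days in the greenhouse. Treatments used a surfactant-containing non-phytotoxic solvent formulation, sprayed on seeded pots preemergence or on 1–4-leaf plants of 2–18 cm postemergence.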

[5] = system: crabgrass (Digitaria sanguinalis); assay: Test C preemergence
Summary of the method: as §2

[6] = system: bermudagrass (Cynodon dactylon); assay: Test C preemergence
Summary of the method: as §2

soybean (Glycine max) = assay: Test C preemergence
Summary of the method: as §2

[7] = system: Surinam grass (Brachiaria decumbens); assay: Test C preemergence
Summary of the method: as §2

corn (Zea mays) = assay: Test C preemergence
Summary of the method: as §2

[8] = system: yellow nutsedge (Cyperus esculentus); assay: Test C preemergence
Summary of the method: as §2

kochia (Kochia scoparia) = assay: Test C preemergence
Summary of the method: as §2

[9] = system: goosegrass (Eleusine indica); assay: Test C preemergence
Summary of the method: as §2

Nightshade = assay: Test C preemergence
[10] = system: velvetleaf (Abutilon theophrasti); assay: Test C preemergence
Summary of the method: as §2

[11] = system: lambsquarters (Chenopodium album); assay: Test C preemergence
Summary of the method: as §2

[12] = system: woolly cupgrass (Eriochloa villosa); assay: Test C preemergence
Summary of the method: as §2

[13] = system: giant foxtail (Setaria faberii); assay: Test C preemergence
Summary of the method: as §2

Sunflower [14] = assay: Test C preemergence; conditions: Rate 125 g/ha; scale 0 to 100, 0 no effect, 100 complete control
[15] = system: morningglory (Ipomoea hederacea); assay: Test C preemergence
Summary of the method: as §2

[16] = system: pigweed (Amaranthus retroflexus); assay: Test C preemergence
Summary of the method: as §2

[17] = system: johnsongrass (Sorghum halepense); assay: Test C preemergence; conditions: for Plant response rating, Johnsongrass: scale 0 to 100, 0 no effect, 100 complete control
Summary of the method: as §2

Sunflower [18] = assay: Test C preemergence; conditions: Rate 500 g/ha, visual evaluation after 12 to 14 days
[19] = Rate 125 g/ha, scale 0 to 100, 0 no effect, 100 complete control
[20] = preemergence, Rate 62 g/ha, scale 0 to 100
[21] = preemergence, Rate 500 g/ha, visual evaluation after 12 to 14 days
[22] = preemergence, Rate 250 g/ha, scale 0 to 100, 0 no effect, 100 complete control

## CCCOc1cc(N2CCC(n3ccc(C(C)(C)C)n3)C2=O)ccc1C (centres unmarked) [Compound 107]
[1]; Rate 250 g/ha
  Barnyardgrass plant response rating: 70
[1]; Rate 500 g/ha
  Barnyardgrass plant response rating: 80
[1]; Rate 62 g/ha
  Plant response rating, Barnyardgrass: 20
[1]; Rate 125 g/ha
  Plant response rating, Barnyardgrass: 30
[2]; Rate 250 g/ha
  Ducksalad plant response rating: 0
[2]; Rate 500 g/ha
  Ducksalad plant response rating: 70
[2]; Rate 62 g/ha
  Plant response rating, Ducksalad: 0
[2]; Rate 125 g/ha
  Plant response rating, Ducksalad: 0
[3]; Rate 250 g/ha
  Flatsedge plant response rating: 60
[3]; Rate 500 g/ha
  Flatsedge plant response rating: 100
[3]; Rate 62 g/ha
  Plant response rating, Flatsedge: 30
[3]; Rate 125 g/ha
  Plant response rating, Flatsedge: 50
[4]; [19]
  Plant response rating, Cocklebur: 0
[4]; [20]
  Plant response rating, Cocklebur: 0
[4]; [21]
  Plant response rating (0 to 100), Cocklebur: 0
[4]; [22]
  Plant response rating, Cocklebur: 0
[5]; [19]
  Plant response rating, Crabgrass: 100
[5]; [20]
  Plant response rating, Crabgrass: 100
[5]; [21]
  Plant response rating (0 to 100), Crabgrass: 100
[5]; [22]
  Plant response rating, Crabgrass: 100
[6]; [19]
  Plant response rating, Bermudagrass: 100
[6]; [20]
  Plant response rating, Bermudagrass: 85
[6]; [21]
  Plant response rating (0 to 100 where 0 is no effect and 100 is complete control), Bermudagrass: 100
[6]; [22]
  Plant response rating, Bermudagrass: 100
Soybean (Glycine max); [19]
  Plant response rating, Soybean: 30
Soybean (Glycine max); [20]
  Plant response rating, Soybean: 30
Soybean (Glycine max); [21]
  Plant response rating (0 to 100), Soybean: 60
Soybean (Glycine max); [22]
  Plant response rating, Soybean: 40
[7]; [19]
  Plant response rating, Surinam grass: 0
[7]; [20]
  Plant response rating, Surinam grass: 0
[7]; [21]
  Plant response rating (0 to 100), Surinam grass: 0
[7]; [22]
  Plant response rating, Surinam grass: 0
Corn (Zea mays); [19]
  Plant response rating, Corn: 0
Corn (Zea mays); [20]
  Plant response rating, Corn: 0
Corn (Zea mays); [21]
  Plant response rating (0 to 100), Corn: 10
Corn (Zea mays); [22]
  Plant response rating, Corn: 0
[8]; [19]
  Plant response rating, Nutsedge: 0
[8]; [20]
  Plant response rating, Nutsedge: 0
[8]; [21]
  Plant response rating (0 to 100), Nutsedge: 0
[8]; [22]
  Plant response rating, Nutsedge: 0
Kochia (Kochia scoparia); [19]
  Plant response rating, Kochia: 70
Kochia (Kochia scoparia); [20]
  Plant response rating, Kochia: 70
Kochia (Kochia scoparia); [21]
  Plant response rating (0 to 100), Kochia: 100
Kochia (Kochia scoparia); [22]
  Plant response rating, Kochia: 85
[9]; [19]
  Plant response rating, Goosegrass: 70
[9]; [20]
  Plant response rating, Goosegrass: 10
[9]; [21]
  Plant response rating (0 to 100), Goosegrass: 100
[9]; [22]
  Plant response rating, Goosegrass: 80
Nightshade; Rate 62 g/ha, scale 0 to 100
  Plant response rating, Nightshade: 80
Nightshade; [19]
  Plant response rating, Nightshade: 90
Nightshade; Rate 250 g/ha, scale 0 to 100, 0 no effect, 100 complete control
  Plant response rating, Nightshade: 90
[10]; [19]
  Plant response rating, Velvetleaf: 50
[10]; [20]
  Plant response rating, Velvetleaf: 40
[10]; [21]
  Plant response rating (0 to 100), Velvetleaf: 100
[10]; [22]
  Plant response rating, Velvetleaf: 50
[11]; [19]
  Plant response rating, Lambsquarters: 100
[11]; [20]
  Plant response rating, Lambsquarters: 90
[11]; [21]
  Plant response rating (0 to 100), Lambsquarters: 100
[11]; [22]
  Plant response rating, Lambsquarters: 100
[12]; [19]
  Plant response rating, Cupgrass, Woolly: 60
[12]; [20]
  Plant response rating, Cupgrass, Woolly: 50
[12]; [21]
  Plant response rating (0 to 100), Cupgrass, Woolly: 80
[12]; [22]
  Plant response rating, Cupgrass, Woolly: 80
[13]; [19]
  Plant response rating, Foxtail, Giant: 100
[13]; [20]
  Plant response rating, Foxtail, Giant: 100
[13]; [21]
  Plant response rating (0 to 100), Foxtail, Giant: 100
[13]; [22]
  Plant response rating, Foxtail, Giant: 100
Sunflower [14]
  Plant response rating, Sunflower: 0
[15]; [19]
  Plant response rating, Morningglory: 0
[15]; [20]
  Plant response rating, Morningglory: 0
[15]; [21]
  Plant response rating (0 to 100), Morningglory: 100
[15]; [22]
  Plant response rating, Morningglory: 0
[16]; [19]
  Plant response rating, Pigweed: 0
[16]; [20]
  Plant response rating, Pigweed: 90
[16]; [21]
  Plant response rating (0 to 100), Pigweed: 100
[16]; [22]
  Plant response rating, Pigweed: 0
[17]; Rate 125 g/ha
  Plant response rating, Johnsongrass: 20
[17]; [21]
  Plant response rating (0 to 100), Johnsongrass: 50
[17]; preemergence, Rate 250 g/ha
  Plant response rating, Johnsongrass: 50
Sunflower [18]
  Plant response rating (0 to 100), Sunflower: 70
